# Molecular target: alpha-L-fucosidase (Bos taurus)
# Test: Compound was tested for inhibition of alpha-fucosidase from bovine kidney.
smiles,measurement,value
"O[C@H]1[C@H](O)[C@H](O)CN(Cc2ccccc2)C[C@H]1O [1-Benzyl-azepane-3,4,5,6-tetraol]",Ki,23.4 µM

# Source: BindingDB's records for doi:10.1016/0960-894X(96)00183-7 (1996)
